Consider nine compounds from BindingDB's records for doi:10.1016/S0960-894X(01)80562-X (1994).

The target of the test is Angiotensin-converting enzyme (Rattus norvegicus) (UniProt P47820). Description: In vitro inhibitory activity against angiotensin converting enzyme (ACE) in rat was determined.
Chain of Angiotensin-converting enzyme (Rattus norvegicus) (P47820 whole entry, looked up): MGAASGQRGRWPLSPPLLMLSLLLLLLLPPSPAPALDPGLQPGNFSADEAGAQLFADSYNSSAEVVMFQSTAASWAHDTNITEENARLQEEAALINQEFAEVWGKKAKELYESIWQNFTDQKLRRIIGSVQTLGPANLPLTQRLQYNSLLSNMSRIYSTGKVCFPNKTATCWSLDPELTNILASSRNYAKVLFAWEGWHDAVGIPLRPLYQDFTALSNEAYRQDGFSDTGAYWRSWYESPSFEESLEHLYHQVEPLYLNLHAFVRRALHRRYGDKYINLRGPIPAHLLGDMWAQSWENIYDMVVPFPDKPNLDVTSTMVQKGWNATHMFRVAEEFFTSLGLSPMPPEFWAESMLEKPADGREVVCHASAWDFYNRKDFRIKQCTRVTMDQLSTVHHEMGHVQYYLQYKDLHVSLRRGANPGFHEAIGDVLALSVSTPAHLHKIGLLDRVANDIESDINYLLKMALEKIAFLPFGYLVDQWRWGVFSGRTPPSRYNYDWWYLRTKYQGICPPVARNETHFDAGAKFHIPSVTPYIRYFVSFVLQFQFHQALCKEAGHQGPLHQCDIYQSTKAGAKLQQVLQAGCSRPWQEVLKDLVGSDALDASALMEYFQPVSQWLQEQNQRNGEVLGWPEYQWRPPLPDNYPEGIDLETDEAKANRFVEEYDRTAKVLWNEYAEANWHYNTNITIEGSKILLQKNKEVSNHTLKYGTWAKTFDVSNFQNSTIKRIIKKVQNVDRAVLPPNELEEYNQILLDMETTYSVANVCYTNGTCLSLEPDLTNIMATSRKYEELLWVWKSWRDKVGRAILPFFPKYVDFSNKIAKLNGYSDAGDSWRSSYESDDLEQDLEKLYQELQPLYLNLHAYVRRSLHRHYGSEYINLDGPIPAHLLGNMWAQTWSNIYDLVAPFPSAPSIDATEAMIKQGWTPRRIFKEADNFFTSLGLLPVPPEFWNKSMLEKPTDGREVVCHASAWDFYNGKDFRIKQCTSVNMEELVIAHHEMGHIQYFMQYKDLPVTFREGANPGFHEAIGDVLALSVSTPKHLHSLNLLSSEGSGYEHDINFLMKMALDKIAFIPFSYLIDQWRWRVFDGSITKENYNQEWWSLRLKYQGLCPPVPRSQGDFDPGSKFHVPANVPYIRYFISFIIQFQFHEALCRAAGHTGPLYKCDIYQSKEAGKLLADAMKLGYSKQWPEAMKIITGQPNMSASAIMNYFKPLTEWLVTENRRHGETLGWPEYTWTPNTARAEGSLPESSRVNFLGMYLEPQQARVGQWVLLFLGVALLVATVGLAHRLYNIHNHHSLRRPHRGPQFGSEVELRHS
With `O=C(N[C@H]1CCC(=O)N2CC[C@@H](C(=O)O)N2C1=O)[C@@H](S)Cc1ccccc1`, half-maximal inhibition (IC50) required 20 nM.

With `O=C(N[C@H]1CCC(=O)N2CCC[C@@H](C(=O)O)N2C1=O)[C@@H](S)Cc1ccccc1`, the 50% inhibitory concentration (IC50) was 7 nM.

In the case of `CN1C(=O)CC[C@H](NC(=O)[C@@H](S)Cc2ccccc2)C(=O)N1CC(=O)O`, half-maximal inhibition (IC50) required 16 nM.

With `CN1CCC[C@H](NC(=O)[C@@H](S)Cc2ccccc2)C(=O)N1CC(=O)O`, the IC50 came out at 16 nM.

`CCCN1CCC[C@H](NC(=O)[C@@H](S)Cc2ccccc2)C(=O)N1CC(=O)O` returned an IC50 of 6 nM. This IC50 lies about 2.7-fold lower than the previous one.

As for `CCCN1C(=O)CC[C@H](NC(=O)[C@@H](S)Cc2ccccc2)C(=O)N1CC(=O)O`, the IC50 worked out at 10 nM.

The compound `O=C(N[C@H]1CCCN2CC[C@@H](C(=O)O)N2C1=O)[C@@H](S)Cc1ccccc1` returned an IC50 of 12 nM.

The compound `O=C(N[C@H]1CCCN2CCC[C@@H](C(=O)O)N2C1=O)[C@@H](S)Cc1ccccc1` gave an IC50 of 8 nM.

Compound `O=C(O)CN1NCCC[C@H](NC(=O)[C@@H](S)Cc2ccccc2)C1=O` had an IC50 of 60 nM.
